Results: patent EP3959993B1, “METHOD FOR SOLVENT FREE PRODUCTION OF AROMA CONCENTRATES” (Symrise AG, priority 2020, dated 2022)

Tests used:
[1] = Influence of the amount of NaCl on the distribution between oil phase and water phase (Example 5); type: physicochemical
[2] = Second oil phase obtained by adding NaCl to the water phase (Example 4); type: physicochemical; settings: after separating oil phases I and II
Method: Cross linked polystyrene was used as adsorbent material. The volume flux for loading the adsorbent was 300 ml/min.
The adsorbent was heated to 150 °C, the temperature of the applied water steam was 160 °C.
The water steam flux was 10 g/min and was applied for 100 min.
The oil and water phases were separated.
A second oil phase was separated and was collected.

| Compound | Distribution in [%] between oil phase and water phase after condensation: Oil phase ([1]; NaCl 0%) [%] | Distribution in [%] between oil phase and water phase after condensation: Water phase ([1]; NaCl 0%) [%] | Distribution in [%] between oil phase and water phase after condensation: Oil phase ([1]; NaCl 27.8 %) [%] | Distribution in [%] between oil phase and water phase after condensation: Water phase ([1]; NaCl 27.8 %) [%] | Distribution in [%] between oil phase and water phase after condensation: Oil phase ([1]; NaCl 41.67%) [%] | Distribution in [%] between oil phase and water phase after condensation: Water phase ([1]; NaCl 41.67%) [%] | Distribution in [%] between oil phase and water phase after condensation: Oil phase ([1]; NaCl 55.56 %) [%] | Distribution in [%] between oil phase and water phase after condensation: Water phase ([1]; NaCl 55.56 %) [%] | Distribution in [%] between oil phase and water phase after condensation: Oil phase ([1]; NaCl 69.44 %) [%] | Distribution in [%] between oil phase and water phase after condensation: Water phase ([1]; NaCl 69.44 %) [%] | Distribution in [%] between oil phase and water phase after condensation: Oil phase ([1]; NaCl 83.33 %) [%] | Distribution in [%] between oil phase and water phase after condensation: Water phase ([1]; NaCl 83.33 %) [%] | Loss in the water phase [2] |
| --- | --- | --- | --- | --- | --- | --- | --- | --- | --- | --- | --- | --- | --- |
| 2-methyl propanol | 17.1 | 82.9 | 29.7 | 70.3 | 41 | 59 | 42.8 | 57.2 | 45.9 | 54.1 | 50.2 | 49.8 | 49,8% |
| CCC(C)CO (centres unmarked) [2-methyl butanol] | 30.8 | 69.2 | 69 | 31 | 64.4 | 35.6 | 70.6 | 29.4 | 82.5 | 17.5 | 82.7 | 17.3 | 17,3% |
| CCC(C)COC(C)=O (centres unmarked) [2-methyl butyl acetate] | 79.3 | 20.7 | 97.1 | 2.9 | 98.6 | 1.4 | 99.2 | 0.8 | 99.7 | 0.3 | 99.8 | 0.2 | 0,2% |
| CC(=O)OCC(C)C [2-methylpropyl acetate] | 69.3 | 30.7 | 92.1 | 7.9 | 96.2 | 3.8 | 97.5 | 2.5 | 98.6 | 1.4 | 99 | 1 | 1,0% |
| CCCC(CC=O)OCC (centres unmarked) [3-ethoxy-hexanal] | 48.4 | 51.6 | 78.9 | 21.1 | 89 | 11 | 94.6 | 5.4 | 97.4 | 2.6 | 98.5 | 1.5 | 1,5% |
| CC(C)CCO [3-methyl butanol] | 28.4 | 71.6 | 39 | 61 | 63.1 | 36.9 | 69.7 | 30.3 | 68.9 | 31.1 | 82.1 | 17.9 | 17,9% |
| O=Cc1ccccc1 [benzaldehyde] | 27 | 73 | 57.5 | 42.5 | 64.7 | 35.3 | 70.4 | 29.6 | 76.7 | 23.3 | 80.8 | 19.2 | 19,2% |
| CCCCOC(C)=O [butyl acetate] | 53.5 | 46.5 | 85.6 | 14.4 | 92.5 | 7.5 | 95 | 5 | 97.5 | 2.5 | 98.6 | 1.4 | 1,4% |
| CCOC(=O)CC [ethyl propionate] | 0 | 100 | 0 | 100 | 0 | 100 | 0 | 100 | 0 | 100 | 0 | 100 |  |
